Measurements published in article PMC3596558, “Identification of the metabolites of polybrominated diphenyl ether 99 and its related cytochrome P450s^” (Journal of Biomedical Research, 2010).
Several values for one entry are separate records, joined by “and”; a condition that tells them apart may be missing. Equal values may be shown once. Entries after “also recorded” stand apart in the source; their conditions may differ.

Legend:
primary rat hepatocytes = experiment: Metabolism of BDE-99 in primary rat hepatocytes, GC/MS of extracts; assay type: in vitro ADME; details: for metabolite of BDE-99 detected by GC/MS (qualitative): compared with commercial standards
Description: Primary rat hepatocytes were isolated from three individual male Sprague-Dawley CD rats (body weight 220-250 g) obtained from Laboratory Animal Center of Nanjing Medical University, using the two-step in situ collagenase perfusion method. Then the hepatocytes were purified by percoll density gradient separation and washed twice before being resuspended in the attachment medium. Cells viability exceeded 90% as determined by trypan blue exclusion. For the cell culture, the isolated hepatocytes were seeded in Type I collagen-coated 12-well plates at a density of 150, 000 cells/cm^2 in Williams' Medium E containing 5% fetal calf serum, 100 U/mL penicillin and 100 µg/mL streptomycin, and then incubated in a humidified atmosphere of 5% CO2 in air at 37°C. After 2-3 h incubation, the unattached cells were poured off and the medium was replaced with 1 mL HepatoZYME-SFM supplemented with 100 U/mL penicillin, 100 µg/mL streptomycin, 20 µg/L EGF and 20 µg/L HGF.
(§1) All the hepatocyte batches were exposed to BDE-99 at a nominal concentration of 10 µM, equivalent to 10 nM of compound per well. A stock solution of BDE-99 which was 200 times the final concentration in tissue culture medium was prepared in DMSO and stored at -20°C. Separate 12-well plates were used for the metabolism and gene expression analysis. To produce metabolites of BDE-99, the hepatocytes were treated once every 24 h for 3 days to take advantage of the increased activity of cells and potential increase in metabolite formation. The hepatocytes cultured with medium without BDE-99 were set up as controls. During medium exchange of the hepatocytes, we collected and pooled the contents from each well. After incubation, the hepatocytes were removed from the wells using 1 mL methanol to disrupt cell membranes. The contents were subsequently transferred to clean glass test tubes for extraction. For the gene expression analysis, the rat hepatocytes were exposed to 10 µM BDE-99 for 24 h. Wells treated with media containing aliquots of DMSO were set up as controls.
Hepatocytes and media were extracted using methods developed for the extraction of phenolic and neutral compounds from serum. Briefly, samples were first spiked with one internal standard, BDE-77, and extracted using methyl-tert-butyl ether/hexane:1/1(v/v). Lipids were removed from the extracts with concentrated sulfuric acid, and then the neutral and phenolic compounds were separated using a basic aqueous solution of potassium hydroxide. The phenolic fraction was derivatized with acetonitrile / methanol / water / pyrimidine: 5/2/2/1(v/v), then methyl chloroformate was added to produce methyl formate BDE congeners. After derivatization, samples were evaporated to complete dryness using a slow stream of nitrogen and reconstituted in hexane. Each human P450s assay sample was added into one internal standard BDE-77 before extraction. Proteins were denatured with 0.5 mL 6 M hydrochloric acid, and then 3 mL hexane was added for extraction. This step was repeated three times. The extraction was evaporated to complete dryness using a slow stream of nitrogen and reconstituted in 0.5 mL acetonitrile. Rates of elimination were determined by comparing the concentration of parent compound before and after the reaction.
The underivatized and derivatized extracts were analyzed using a GC/MS system (Trace DSQ ThermoFisher Scientific, USA) with electron impact (EI) ionization. Separation was performed on a DB-5MS column (30 m×0.25 mm i. d. ×0.25 µm thickness) (Agilent Technologies, Inc., USA). The inlet temperature was 260°C, and the injection was performed in pulsed splitless mode. The oven initial temperature was 110°C and was held for 1 min. The temperature was ramped to 210°C at 12°C/min, and a second ramp was performed to 250°C at 4°C/min and was […]. Finally, the oven was ramped to 300°C at 20°C/min and this step was held for 10 min to give a total run time of 32.83 min. […]

human CYP1A1 = molecular target: T1, human CYP1A1 (Homo sapiens, UniProt P04798); experiment: Metabolic clearance (parent depletion) of BDE-99 by recombinant human CYP1A1; assay type: in vitro ADME; details: percentage parent BDE-99 metabolized during a 20-min incubation, 20 µM BDE-99, 37°C, mean ±SD, n = 3
T1 construct: made in house; host or cells: Sf9 insect cells (Bac-to-Bac baculovirus), microsomes
T1 sequence (P04798 1-512): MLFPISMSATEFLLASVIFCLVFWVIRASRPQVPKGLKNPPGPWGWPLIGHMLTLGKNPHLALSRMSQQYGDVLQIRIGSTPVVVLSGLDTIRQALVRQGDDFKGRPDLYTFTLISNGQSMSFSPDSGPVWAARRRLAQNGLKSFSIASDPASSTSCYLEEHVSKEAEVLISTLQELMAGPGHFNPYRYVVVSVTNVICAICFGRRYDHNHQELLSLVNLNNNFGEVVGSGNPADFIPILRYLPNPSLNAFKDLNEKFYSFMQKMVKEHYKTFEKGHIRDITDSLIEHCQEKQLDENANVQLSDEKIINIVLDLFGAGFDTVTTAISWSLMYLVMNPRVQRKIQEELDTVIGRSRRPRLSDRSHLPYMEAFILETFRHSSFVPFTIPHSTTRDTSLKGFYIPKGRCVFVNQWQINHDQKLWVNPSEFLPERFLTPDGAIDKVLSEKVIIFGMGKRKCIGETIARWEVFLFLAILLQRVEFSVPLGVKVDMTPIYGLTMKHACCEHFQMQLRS
Description: (§2) All the proteins were expressed in a Bac-to-Bac baculovirus expression system (Invitrogen Corp., USA) following the manufacturer's instructions. Briefly, the CYP1A1 (NM_000499), CYP1A2 (NM_000761), CYP2A6 (NM_000762), CYP2E1 (NM_000773) and CYP3A4 (NM_017460) cDNA were first transformed to the recombinant bacmid, and subsequently transfected into the Sf9 cells to produce recombinant baculovirus particles, and further to get the baculoviral stock which was finally used to express CYPs proteins in the culture medium containing 0.1 µM ferric citrate and 0.1 µM 5-ALA. After being incubated for 72 h, the infected Sf9 cells were harvested and the microsomes were prepared by sonication using an Ultrasonic Processor (CPX130, Cole-Parmer Scientific Instruments, USA) and differential centrifugation. The protein expressed from the blank vector was used as a negative control. The prepared microsomes were stored at -80°C prior to usage.
(§3) Each human P450 was screened for its ability to oxidize and eliminate BDE-99 from the assay mixture. […]
(§4) Hepatocytes and media were extracted using methods developed for the extraction of phenolic and neutral compounds from serum. […] Rates of elimination were determined by comparing the concentration of parent compound before and after the reaction.

human CYP1A2 = molecular target: T2, human CYP1A2 (Homo sapiens, UniProt P05177); experiment: Metabolic clearance (parent depletion) of BDE-99 by recombinant human CYP1A2; assay type: in vitro ADME; details: percentage parent BDE-99 metabolized during a 20-min incubation, 20 µM BDE-99, 37°C, mean ±SD, n = 3
T2 construct: made in house; host or cells: Sf9 insect cells (Bac-to-Bac baculovirus), microsomes
T2 sequence (P05177 1-516): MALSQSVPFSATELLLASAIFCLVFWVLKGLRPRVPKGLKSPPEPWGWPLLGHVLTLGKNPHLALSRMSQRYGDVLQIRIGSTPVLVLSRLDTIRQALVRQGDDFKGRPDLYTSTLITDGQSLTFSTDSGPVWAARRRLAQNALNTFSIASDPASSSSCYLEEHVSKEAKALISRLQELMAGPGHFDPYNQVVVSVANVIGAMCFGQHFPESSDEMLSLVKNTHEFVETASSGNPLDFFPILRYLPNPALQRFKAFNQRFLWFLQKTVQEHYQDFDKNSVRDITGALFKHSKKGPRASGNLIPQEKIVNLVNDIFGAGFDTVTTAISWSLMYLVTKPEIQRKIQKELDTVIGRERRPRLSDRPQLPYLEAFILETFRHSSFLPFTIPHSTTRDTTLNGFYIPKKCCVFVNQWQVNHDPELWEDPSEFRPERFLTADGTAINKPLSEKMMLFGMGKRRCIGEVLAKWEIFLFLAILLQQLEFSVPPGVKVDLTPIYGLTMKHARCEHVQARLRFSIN
Description: as §2, §3, §4

human CYP2A6 = molecular target: T3, human CYP2A6 (Homo sapiens, UniProt P11509); experiment: Metabolic clearance (parent depletion) of BDE-99 by recombinant human CYP2A6; assay type: in vitro ADME; details: percentage parent BDE-99 metabolized during a 20-min incubation, 20 µM BDE-99, 37°C, mean ±SD, n = 3
T3 construct: made in house; host or cells: Sf9 insect cells (Bac-to-Bac baculovirus), microsomes
T3 sequence (P11509 1-494): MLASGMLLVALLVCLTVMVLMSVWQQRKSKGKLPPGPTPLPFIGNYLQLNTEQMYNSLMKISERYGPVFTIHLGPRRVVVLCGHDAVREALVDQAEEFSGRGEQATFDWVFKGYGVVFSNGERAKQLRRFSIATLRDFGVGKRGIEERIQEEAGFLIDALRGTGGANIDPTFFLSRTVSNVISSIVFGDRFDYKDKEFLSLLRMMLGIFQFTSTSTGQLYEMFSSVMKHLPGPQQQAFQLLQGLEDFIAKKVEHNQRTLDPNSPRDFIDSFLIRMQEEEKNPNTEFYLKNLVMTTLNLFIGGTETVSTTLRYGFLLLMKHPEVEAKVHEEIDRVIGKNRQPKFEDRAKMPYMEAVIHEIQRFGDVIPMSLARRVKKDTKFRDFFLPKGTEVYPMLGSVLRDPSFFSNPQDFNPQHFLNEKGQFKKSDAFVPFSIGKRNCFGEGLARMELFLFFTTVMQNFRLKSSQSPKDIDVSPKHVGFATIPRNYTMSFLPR
Description: as §2, §3, §4

human CYP2E1 = molecular target: T4, human CYP2E1 (Homo sapiens, UniProt P05181); experiment: Metabolic clearance (parent depletion) of BDE-99 by recombinant human CYP2E1; assay type: in vitro ADME; details: 20-min incubation, 20 µM BDE-99, 37°C, N.S. = no significant difference (vs blank vector control)
T4 construct: made in house; host or cells: Sf9 insect cells (Bac-to-Bac baculovirus), microsomes
T4 sequence (P05181 whole entry): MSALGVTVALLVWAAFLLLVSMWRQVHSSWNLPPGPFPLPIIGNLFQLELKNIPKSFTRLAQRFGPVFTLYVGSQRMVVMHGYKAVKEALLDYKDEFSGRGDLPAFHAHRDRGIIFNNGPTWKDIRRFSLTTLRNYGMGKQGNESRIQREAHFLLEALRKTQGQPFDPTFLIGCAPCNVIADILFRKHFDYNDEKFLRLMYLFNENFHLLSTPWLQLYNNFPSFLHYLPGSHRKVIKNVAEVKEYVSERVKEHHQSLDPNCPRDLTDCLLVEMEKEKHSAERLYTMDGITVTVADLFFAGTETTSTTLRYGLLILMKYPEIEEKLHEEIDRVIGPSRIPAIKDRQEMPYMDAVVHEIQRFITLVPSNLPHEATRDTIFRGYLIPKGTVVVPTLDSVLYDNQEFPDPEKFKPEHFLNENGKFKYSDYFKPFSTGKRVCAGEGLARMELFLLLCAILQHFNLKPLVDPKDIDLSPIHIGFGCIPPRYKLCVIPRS
Description: as §2, §3, §4

human CYP3A4 = molecular target: T5, human CYP3A4 (Homo sapiens, UniProt P08684); experiment: Metabolic clearance (parent depletion) of BDE-99 by recombinant human CYP3A4; assay type: in vitro ADME; details: percentage parent BDE-99 metabolized during a 20-min incubation, 20 µM BDE-99, 37°C, mean ±SD, n = 3
T5 construct: made in house; host or cells: Sf9 insect cells (Bac-to-Bac baculovirus), microsomes
T5 sequence (P08684 whole entry): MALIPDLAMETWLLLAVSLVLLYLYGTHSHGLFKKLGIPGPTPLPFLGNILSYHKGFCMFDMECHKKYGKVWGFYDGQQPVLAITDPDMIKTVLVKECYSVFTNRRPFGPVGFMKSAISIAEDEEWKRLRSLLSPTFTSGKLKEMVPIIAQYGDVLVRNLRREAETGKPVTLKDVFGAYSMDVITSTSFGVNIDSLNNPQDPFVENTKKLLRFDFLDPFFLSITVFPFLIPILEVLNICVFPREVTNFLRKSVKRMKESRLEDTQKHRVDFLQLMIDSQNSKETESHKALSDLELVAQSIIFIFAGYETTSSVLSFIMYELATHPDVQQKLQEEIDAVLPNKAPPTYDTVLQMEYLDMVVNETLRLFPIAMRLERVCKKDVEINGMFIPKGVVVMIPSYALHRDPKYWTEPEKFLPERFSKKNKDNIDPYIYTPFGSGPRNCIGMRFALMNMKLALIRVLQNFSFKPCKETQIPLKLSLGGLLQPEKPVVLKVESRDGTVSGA
Description: as §2, §3, §4

CYP1A2 mRNA = CYP1A2 mRNA expression in primary rat hepatocytes, quantitative RT-PCR; assay type: cell-based; details: 10 µM BDE-99, 24 h; P < 0.05; n = 3
Protocol: as §1, with “Wells treated with media containing aliquots of DMSO were set up as controls.” left out
(§5) The expression of several genes that encode potential biotransforming enzymes, such as CYP1A2, CYP2B1/2, CYP3A23/3A1, GSTM1 and GSTP1, were determined using quantitative RT-PCR, and GAPDH was used as a reference to calculate the expression levels. […] At the end of each step, the fluorescence intensity of evagreen was read on the 7900 system. […]

CYP2B1/2 mRNA = CYP2B1/2 mRNA expression in primary rat hepatocytes, quantitative RT-PCR; assay type: cell-based; details: 10 µM BDE-99, 24 h; P < 0.05; n = 3
Protocol: as §1, with “Wells treated with media containing aliquots of DMSO were set up as controls.” left out
as §5

CYP3A23/3A1 mRNA = CYP3A23/3A1 mRNA expression in primary rat hepatocytes, quantitative RT-PCR; assay type: cell-based; details: 10 µM BDE-99, 24 h; P < 0.05; n = 3
Protocol: as §1, with “Wells treated with media containing aliquots of DMSO were set up as controls.” left out
as §5

GSTM1 mRNA = GSTM1 mRNA expression in primary rat hepatocytes, quantitative RT-PCR; assay type: cell-based; details: 10 µM BDE-99, 24 h; n = 3
Protocol: as §1, with “Wells treated with media containing aliquots of DMSO were set up as controls.” left out
as §5

GSTP1 mRNA = GSTP1 mRNA expression in primary rat hepatocytes, quantitative RT-PCR; assay type: cell-based; details: 10 µM BDE-99, 24 h; n = 3
Protocol: as §1, with “Wells treated with media containing aliquots of DMSO were set up as controls.” left out
as §5

[1] = hepatocytes exposed to 10 µM BDE-99

Brc1ccc(Oc2ccc(Br)cc2Br)c(Br)c1 [BDE-47]
metabolite of BDE-99 detected by GC/MS (qualitative) (primary rat hepatocytes; [1]): found in all hepatocytes exposed to BDE-99 | average concentration of metabolite BDE-47 formed from BDE-99 (primary rat hepatocytes; hepatocytes exposed to 10 µM BDE-99, neutral extracts, GC/MS): 215.9±35.8 pmol/well

Oc1cc(Oc2ccc(Br)cc2Br)c(Br)cc1Br [5-OH-BDE-47]
metabolite of BDE-99 detected by GC/MS (qualitative) (primary rat hepatocytes; [1]): identified

Oc1cc(Br)c(Br)cc1Br [2,4,5-tribromophenol]
metabolite of BDE-99 detected by GC/MS (qualitative) (primary rat hepatocytes; [1]): identified

Brc1ccc(Oc2cc(Br)c(Br)cc2Br)c(Br)c1 [BDE-99, 2,2′,4,4′,5-pentabromodiphenyl ether]
Clearance rate of BDE-99 (%) (human CYP1A1): 14.5% | Clearance rate of BDE-99 (%) (human CYP1A2): 30.3% and 30.3±6.5% | Clearance rate of BDE-99 (%) (human CYP2A6): 11.6% and 11.6±2.3% | Clearance rate of BDE-99 (%) (human CYP2E1): seemed not to be associated with the BDE-99 metabolism; also recorded: did not contribute to any metabolism of BDE-99; also recorded: N.S. ^b | Clearance rate of BDE-99 (%) (human CYP3A4): 27.7% and 27.7±5.1% | BDE-99 mass unrecovered (primary rat hepatocytes; after 24-h incubation, initial 10.21±0.50 nmol/well): about 13.5% | metabolite of BDE-99 detected by GC/MS (qualitative) (primary rat hepatocytes; [1]): no MeO metabolite was determined | average percentage increase of CYP1A2 mRNA expression vs control (CYP1A2 mRNA): 15% | average percentage increase of CYP2B1/2 mRNA expression vs control (CYP2B1/2 mRNA): 22% | average percentage increase of CYP3A23/3A1 mRNA expression vs control (CYP3A23/3A1 mRNA): 124% | GSTM1 mRNA expression, treated cells vs control cells (GSTM1 mRNA): no differences | GSTP1 mRNA expression, treated cells vs control cells (GSTP1 mRNA): no differences

Oc1cc(Oc2cc(Br)c(Br)cc2Br)c(Br)cc1Br [5′-OH-BDE-99]
metabolite of BDE-99 detected by GC/MS (qualitative) (primary rat hepatocytes; [1]): identified
